In US7196100B2, “Opioid receptor antagonists” (Eli Lilly and Company, priority 2004, dated 2007):

Key:
Format in all cases: biochemical
[1] = molecular target: kappa opioid receptor (KOR) (Homo sapiens, UniProt P41145); assay: GTP-γ-S Binding Assay (SPA-based), antagonist mode vs U69593; conditions: In vitro antagonism; agonist U69593 300 nM; Kb by Cheng-Prusoff equation
Experimental: (§1) An SPA—based GTP-γ-S assay format was developed based on previous opioid (Emmerson et al., J. Pharm Exp Ther 278, 1121, 1996; Horng et al., Society for Neuroscience Abstracts, 434.6, 2000) and muscarinic (DeLapp et al., JPET 289, 946, 1999) assay formats. Membranes were re-suspended in 20 mM HEPES, 100 mM NaCl, 5 mM MgCl2, 1 mM DTT, and 1 mM EDTA. Fifty (50) […] of GTP-γ-[35S], compound, membrane suspension (20 microgram/well), and wheat germ agglutinin coated SPA beads (1 mg/well) were added to clear bottom 96 well assay plates. GDP ([…]) was added to the membrane solution prior to addition to the assay plates. Plates were sealed and incubated for four hours at room temperature then placed in a refrigerator overnight to allow the beads to settle. Signal stability at 4° C. was determined to be >60 hours. Plates were warmed to room temperature and counted in a Wallac Microbeta scintillation counter. For antagonist assays, specific agonists were added at the following concentrations: (MOR) DAMGO 1 micromolar, (DOR) DPDPE 30 nM, (KOR) U69593 300 nM. Kb's were determined by Cheng-Prusoff equation (see Cheng and Prusoff, Biochem. Pharmacol. 22, 3099, 1973).

mu opioid receptor (MOR) = mu opioid receptor (MOR) (Homo sapiens, UniProt P35372); assay: GTP-γ-S Binding Assay (SPA-based), antagonist mode vs DAMGO; conditions: In vitro antagonism; agonist DAMGO 1 micromolar; Kb by Cheng-Prusoff equation
Chain of mu opioid receptor (MOR) (P35372 whole entry): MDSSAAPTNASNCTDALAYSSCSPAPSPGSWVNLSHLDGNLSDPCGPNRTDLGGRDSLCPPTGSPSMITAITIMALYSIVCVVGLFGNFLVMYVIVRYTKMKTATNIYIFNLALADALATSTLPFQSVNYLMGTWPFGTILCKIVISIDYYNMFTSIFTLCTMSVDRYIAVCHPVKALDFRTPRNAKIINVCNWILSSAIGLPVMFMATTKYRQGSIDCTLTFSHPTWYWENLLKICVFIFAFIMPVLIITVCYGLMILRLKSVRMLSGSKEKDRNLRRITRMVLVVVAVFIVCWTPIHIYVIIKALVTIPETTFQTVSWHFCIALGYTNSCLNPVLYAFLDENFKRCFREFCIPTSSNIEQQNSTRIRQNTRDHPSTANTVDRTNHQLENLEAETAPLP
Experimental: as §1

[2] = molecular target: delta opioid receptor (DOR) (Homo sapiens, UniProt P41143); assay: GTP-γ-S Binding Assay (SPA-based), antagonist mode vs DPDPE; conditions: In vitro antagonism; agonist DPDPE 30 nM; Kb by Cheng-Prusoff equation
Chain of delta opioid receptor (DOR) (P41143 whole entry): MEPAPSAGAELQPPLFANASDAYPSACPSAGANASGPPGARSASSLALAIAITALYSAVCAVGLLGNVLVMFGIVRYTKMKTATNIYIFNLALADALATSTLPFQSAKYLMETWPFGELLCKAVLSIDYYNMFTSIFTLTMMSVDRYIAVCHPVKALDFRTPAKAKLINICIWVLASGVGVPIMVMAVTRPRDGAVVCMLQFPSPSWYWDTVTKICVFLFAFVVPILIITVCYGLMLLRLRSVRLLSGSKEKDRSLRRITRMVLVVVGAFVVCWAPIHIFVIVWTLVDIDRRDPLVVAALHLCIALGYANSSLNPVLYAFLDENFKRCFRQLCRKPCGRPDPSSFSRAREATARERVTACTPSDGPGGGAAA
Experimental: as §1

Chain of kappa opioid receptor (KOR) (P41145 whole entry): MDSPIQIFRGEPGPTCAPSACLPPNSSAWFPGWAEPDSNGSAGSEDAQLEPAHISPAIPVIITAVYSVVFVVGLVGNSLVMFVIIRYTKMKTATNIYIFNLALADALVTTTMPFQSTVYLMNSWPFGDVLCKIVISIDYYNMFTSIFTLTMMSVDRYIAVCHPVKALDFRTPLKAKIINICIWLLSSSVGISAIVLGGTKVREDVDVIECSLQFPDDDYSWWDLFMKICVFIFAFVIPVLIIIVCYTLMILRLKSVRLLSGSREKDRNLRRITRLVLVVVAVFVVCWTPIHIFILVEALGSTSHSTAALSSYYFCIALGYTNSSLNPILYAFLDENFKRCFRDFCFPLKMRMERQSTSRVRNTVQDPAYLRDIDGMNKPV

SMILES	Kb [1]	Kb (mu opioid receptor (MOR))	Kb [2]
NC(=O)c1ccc(OC2CCC(NCCC3CCOCC3)CC2)nc1 (racemic) [Example 1, ±6-{4-[2-(Tetrahydro-pyran-4-yl)-ethylamino]-cyclohexyloxy}-nicotinamide]	0.601 µM	0.566 µM	0.819 µM
CC(C)CCNC1CCC(Oc2ccc(C(N)=O)cn2)CC1 (racemic) [Example 2, ±6-[4-(3-Methyl-butylamino)-cyclohexyloxy]-nicotinamide]	0.62 µM	0.594 µM	0.996 µM
NC(=O)c1ccc(OC2CCN(Cc3ccccn3)CC2)nc1 [Example 6, 6-(1-Pyridin-2-ylmethyl-piperidin-4-yloxy)-nicotinamide]	0.43 µM	> 1.8 µM	> 7.3 µM
NC(=O)c1ccc(OC2CCN(CC3CC3)CC2)nc1 [Example 7, 6-(1-Cyclopropylmethyl-piperidin-4-yloxy)-nicotinamide]	1.05 µM	1.78 µM	> 7.3 µM

Now from value to molecule:

Kb [1]	Kb (mu opioid receptor (MOR))	Kb [2]	SMILES
0.937 µM	> 1.85 µM	> 7.3 µM	NC(=O)c1ccc(OC2CCN(Cc3cc4ccccc4[nH]3)CC2)nc1 [Example 8, 6-[1-(1H-Indol-2-ylmethyl)-piperidin-4-yloxy]-nicotinamide]
0.93 µM	1.12 µM	> 7.3 µM	NC(=O)c1ccc(OC2CCN(Cc3ccccc3)CC2)cc1 [Example 9, 4-(1-Benzyl-piperidin-4-yloxy)-benzamide]
0.999 µM	0.453 µM	1.96 µM	NC(=O)c1ccc(OC2CCN(CCCc3ccccc3)CC2)cc1 [Example 10, 4-[1-(3-Phenyl-propyl)-piperidin-4-yloxy]-benzamide]
